Reference: PubChem BioAssay AID248 (DTP/NCI, 2004)
Values joined by “and” are separate entries in the source; they are usually repeats but may differ in a detail not shown here. Identical values can stand only once. Toxic doses and inconclusive results are not listed. Cut-off read from the data, not from the text of the source: active = T/C of 150% or more; inactive = T/C below 125%.

System: L1210 leukemia ip in BDF1 mice, survival T/C
Test: NCI In Vivo Anticancer Drug Screen. Data for tumor model L1210 Leukemia (intraperitoneal) in B6D2F1 (BDF1) mice
Settings: endpoint: mean survival time, higher = longer survival
Outline: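 Value reflects the ratio of survival in compound-treated mice to survival in vehicle-treated controls, with both groups carrying the same transplanted tumor.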

[1] = dose: 100.0 mg/kg/injection, schedule: Q01DX001 (ip), vehicle: saline
[2] = dose: 200.0 mg/kg/injection, schedule: Q01DX001 (ip), vehicle: saline
[3] = dose: 400.0 mg/kg/injection, schedule: Q01DX001 (ip), vehicle: saline
[4] = dose: 100.0 mg/kg/injection, schedule: Q01DX009 (ip), vehicle: saline with Tween-80
[5] = dose: 100.0 mg/kg/injection, schedule: Q04DX002 (ip), vehicle: saline with Tween-80
[6] = dose: 100.0 mg/kg/injection, schedule: Q04DX003 (ip), vehicle: saline with Tween-80
[7] = dose: 200.0 mg/kg/injection, schedule: Q04DX002 (ip), vehicle: saline with Tween-80
[8] = dose: 200.0 mg/kg/injection, schedule: Q04DX003 (ip), vehicle: saline with Tween-80
[9] = dose: 100.0 mg/kg/injection, schedule: Q04DX003 (ip), vehicle: Klucel (hydroxypropylcellulose) (HPC)
[10] = dose: 200.0 mg/kg/injection, schedule: Q04DX003 (ip), vehicle: Klucel (hydroxypropylcellulose) (HPC)
[11] = dose: 400.0 mg/kg/injection, schedule: Q04DX003 (ip), vehicle: Klucel (hydroxypropylcellulose) (HPC)
[12] = dose: 25.0 mg/kg/injection, schedule: Q01DX009 (ip), vehicle: saline with Tween-80
[13] = dose: 50.0 mg/kg/injection, schedule: Q01DX009 (ip), vehicle: saline with Tween-80
[14] = dose: 5.0 mg/kg/injection, schedule: Q01DX001 (ip), vehicle: saline
[15] = dose: 10.0 mg/kg/injection, schedule: Q01DX001 (ip), vehicle: saline

Measured: T/C

O=C(O)c1ccc(N=Cc2ccc(N(CCCl)CCCl)cc2)cc1O
inactive: dose: 100.0 mg/kg/injection, schedule: Q01DX001 (ip), vehicle: carboxymethylcellulose (CMC) 95 % of control | dose: 200.0 mg/kg/injection, schedule: Q01DX001 (ip), vehicle: carboxymethylcellulose (CMC) 101 % of control

Cc1coc(NS(=O)(=O)c2ccc(N=Nc3c(N)[nH]c(=S)[nH]c3=O)cc2)c1C
inactive: [1] 113 % of control | [2] 107 % of control | [3] 101 % of control

COC1OC2COC(c3ccccc3)OC2C2OC12 (stereo not drawn)
inactive: dose: 100.0 mg/kg/injection, schedule: Q01DX001 (ip), vehicle: saline with Tween-80 94 % of control | [4] 102 % of control | [5] 100 % of control and 90 % of control | [6] 91 % of control and 86 % of control | dose: 200.0 mg/kg/injection, schedule: Q01DX001 (ip), vehicle: saline with Tween-80 88 % of control | dose: 200.0 mg/kg/injection, schedule: Q01DX009 (ip), vehicle: saline with Tween-80 102 % of control | [7] 96 % of control and 111 % of control | [8] 100 % of control and 88 % of control | dose: 400.0 mg/kg/injection, schedule: Q01DX001 (ip), vehicle: saline with Tween-80 88 % of control | dose: 400.0 mg/kg/injection, schedule: Q01DX009 (ip), vehicle: saline with Tween-80 97 % of control | dose: 400.0 mg/kg/injection, schedule: Q04DX002 (ip), vehicle: saline with Tween-80 100 % of control and 97 % of control | dose: 400.0 mg/kg/injection, schedule: Q04DX003 (ip), vehicle: saline with Tween-80 90 % of control and 93 % of control

CNN1CCOC1=O
inactive: dose: 100.0 mg/kg/injection, schedule: Q04DX002 (ip), vehicle: saline 100 % of control | dose: 200.0 mg/kg/injection, schedule: Q04DX002 (ip), vehicle: saline 100 % of control | dose: 400.0 mg/kg/injection, schedule: Q04DX002 (ip), vehicle: saline 104 % of control

COc1ccc2[nH]ccc2c1
inactive: dose: 100.0 mg/kg/injection, schedule: Q01DX009 (ip), vehicle: other 90 % of control | dose: 100.0 mg/kg/injection, schedule: Q04DX003 (ip), vehicle: other 92 % of control | dose: 200.0 mg/kg/injection, schedule: Q01DX009 (ip), vehicle: other 104 % of control | dose: 200.0 mg/kg/injection, schedule: Q04DX003 (ip), vehicle: other 105 % of control | dose: 400.0 mg/kg/injection, schedule: Q01DX009 (ip), vehicle: other 88 % of control | dose: 400.0 mg/kg/injection, schedule: Q04DX003 (ip), vehicle: other 94 % of control

S=c1cccc[nH]1
inactive: [9] 101 % of control | [10] 102 % of control | [11] 96 % of control

CC(=O)OCC(OC(C)=O)C(OC(C)=O)C(OC(C)=O)C(O)C#N (stereo not drawn)
inactive: dose: 12.5 mg/kg/injection, schedule: Q01DX009 (ip), vehicle: saline with Tween-80 93 % of control | [12] 93 % of control | [13] 97 % of control and 100 % of control

CC1(C)C(=O)NC2(O)CCCC21 (stereo not drawn)
inactive: dose: 15.0 mg/kg/injection, schedule: Q01DX001 (ip), vehicle: saline 101 % of control

Cc1nnc(C(N)=O)c(=O)[nH]1
inactive: dose: 100.0 mg/kg/injection, schedule: Q01DX001 (ip), vehicle: Klucel (hydroxypropylcellulose) (HPC) 109 % of control | dose: 200.0 mg/kg/injection, schedule: Q01DX001 (ip), vehicle: Klucel (hydroxypropylcellulose) (HPC) 120 % of control | dose: 400.0 mg/kg/injection, schedule: Q01DX001 (ip), vehicle: Klucel (hydroxypropylcellulose) (HPC) 97 % of control

CCOP(=O)(OCC)O/N=C(/SC)C(C)C
inactive: [14] 100 % of control | [15] 111 % of control | dose: 20.0 mg/kg/injection, schedule: Q01DX001 (ip), vehicle: saline 103 % of control | dose: 40.0 mg/kg/injection, schedule: Q01DX001 (ip), vehicle: saline 100 % of control | dose: 80.0 mg/kg/injection, schedule: Q01DX001 (ip), vehicle: saline 116 % of control

CCCCCS(=O)(=O)N1CCCCC1
inactive: dose: 100.0 mg/kg/injection, schedule: Q04DX002 (ip), vehicle: other 103 % of control | dose: 200.0 mg/kg/injection, schedule: Q04DX002 (ip), vehicle: other 92 % of control | dose: 400.0 mg/kg/injection, schedule: Q04DX002 (ip), vehicle: other 107 % of control

CCCCCCCC(=O)c1ccc(NC(C)=O)cc1
inactive: dose: 100.0 mg/kg/injection, schedule: Q01DX009 (ip), vehicle: Klucel (hydroxypropylcellulose) (HPC) 103 % of control | [9] 99 % of control | dose: 200.0 mg/kg/injection, schedule: Q01DX009 (ip), vehicle: Klucel (hydroxypropylcellulose) (HPC) 95 % of control | [10] 92 % of control | dose: 400.0 mg/kg/injection, schedule: Q01DX009 (ip), vehicle: Klucel (hydroxypropylcellulose) (HPC) 102 % of control | [11] 100 % of control

NS(=O)(=O)c1ccc(NC(=S)NC(=O)/C=C/c2ccccc2)cc1
inactive: dose: 100.0 mg/kg/injection, schedule: Q01DX009 (sc), vehicle: olive oil, sesame oil, peanut oil 107 % of control | dose: 100.0 mg/kg/injection, schedule: Q04DX003 (sc), vehicle: olive oil, sesame oil, peanut oil 107 % of control | dose: 200.0 mg/kg/injection, schedule: Q01DX009 (sc), vehicle: olive oil, sesame oil, peanut oil 113 % of control | dose: 200.0 mg/kg/injection, schedule: Q04DX003 (sc), vehicle: olive oil, sesame oil, peanut oil 97 % of control | dose: 400.0 mg/kg/injection, schedule: Q01DX009 (sc), vehicle: olive oil, sesame oil, peanut oil 104 % of control | dose: 400.0 mg/kg/injection, schedule: Q04DX003 (sc), vehicle: olive oil, sesame oil, peanut oil 103 % of control

COCC(=O)c1ccccc1
inactive: dose: 50.0 mg/kg/injection, schedule: Q01DX001 (ip), vehicle: saline 96 % of control | [1] 98 % of control | [2] 98 % of control | [3] 93 % of control

Nc1ccc(OCc2ccccc2)cc1
inactive: [13] 96 % of control | dose: 50.0 mg/kg/injection, schedule: Q04DX003 (ip), vehicle: saline with Tween-80 100 % of control | [4] 87 % of control | [6] 103 % of control | [8] 109 % of control

CC(C)(C)OC(=O)NC(CCCCNC(=O)C(F)(F)F)C(=O)ON1C(=O)CCC1=O (stereo not drawn)
inactive: [12] 93 % of control | [13] 95 % of control | [4] 90 % of control

c1ccc(N=Nc2cccnn2)cc1
inactive: dose: 50.0 mg/kg/injection, schedule: Q04DX002 (ip), vehicle: saline with Tween-80 97 % of control | [5] 105 % of control | [7] 94 % of control

c1ccc([As+](c2ccccc2)(c2ccccc2)c2ccccc2)cc1
inactive: dose: 1.1 mg/kg/injection, schedule: Q01DX Z (ip), vehicle: carboxymethylcellulose (CMC) 120 % of control | dose: 1.2 mg/kg/injection, schedule: Q04DX003 (ip), vehicle: carboxymethylcellulose (CMC) 119 % of control | dose: 1.7 mg/kg/injection, schedule: Q01DX Z (ip), vehicle: carboxymethylcellulose (CMC) 104 % of control and 119 % of control | dose: 2.5 mg/kg/injection, schedule: Q01DX Z (ip), vehicle: carboxymethylcellulose (CMC) 101 % of control | dose: 2.5 mg/kg/injection, schedule: Q01DX Z (ip), vehicle: methylcellulose (MC) 119 % of control | dose: 2.5 mg/kg/injection, schedule: Q04DX003 (ip), vehicle: carboxymethylcellulose (CMC) 117 % of control | dose: 3.76 mg/kg/injection, schedule: Q01DX Z (ip), vehicle: carboxymethylcellulose (CMC) 107 % of control | dose: 5.0 mg/kg/injection, schedule: Q01DX001 (ip), vehicle: carboxymethylcellulose (CMC) 115 % of control | [14] 106 % of control | dose: 5.0 mg/kg/injection, schedule: Q04DX003 (ip), vehicle: carboxymethylcellulose (CMC) 116 % of control | dose: 5.56 mg/kg/injection, schedule: Q01DX Z (ip), vehicle: carboxymethylcellulose (CMC) 102 % of control | [15] 106 % of control

Cc1cccc(Nc2cc(Cl)nc(N)n2)c1
inactive: dose: 100.0 mg/kg/injection, schedule: Q01DX Z (ip), vehicle: methylcellulose (MC) 97 % of control | dose: 200.0 mg/kg/injection, schedule: Q01DX Z (ip), vehicle: methylcellulose (MC) 89 % of control

COC(CO)C(O)C(O)C=O (stereo not drawn)
inactive: dose: 100.0 mg/kg/injection, schedule: Q01DX009 (ip), vehicle: saline 93 % of control | dose: 200.0 mg/kg/injection, schedule: Q01DX009 (ip), vehicle: saline 97 % of control | dose: 400.0 mg/kg/injection, schedule: Q01DX009 (ip), vehicle: saline 102 % of control
